{"source": "patent US9346812B2", "about": "“Substituted pyrrolopyrimidine compounds, compositions thereof, and methods of treatment therewith” (Signal Pharmaceutical LLC, priority 2013, dated 2016)", "data": [{"system": "CAL51 cell proliferation", "assay": "Cell Titer Glo Proliferation Assay (CAL51)", "format": "cell-based, human", "conditions": "Homo sapiens, CAL-51; CAL51 cell proliferation, 72 h, Cell Titer Glo luminescence; read-out: Act. Level", "method": "Cell Titer Glo Proliferation Assay. Triple negative breast cancer cell line CAL51 was purchased from DSMZ. […] Allcell lines were maintained in growth media consisting of 90% high glucose Dulbecco's Modified Eagle Medium or RPMI1640 (Invitrogen), 10% fetal bovine serum (Hyclone), and 2 mM L-glutamine (Invitrogen). […] After overnight culture, compound stock (30 mM) was diluted serially in DMSO, further diluted in growth media, and was added to each well as a 10× concentrated solution in a volume of 11 μL, mixed, and allowed to incubate with cells. The compound vehicle (DMSO) was maintained at a final concentration of 0.2% in all wells. After 72 h, 100 μL of Cell Titer Glo solution (Promega) was added to each well of the 96-well plate. The plate was placed on a shaker for 2 minutes. After 10 minutes incubation, the luminescence signal was detected with Envision microplate reader (Perkin Elmer).", "units": {"IC50": "nM"}, "values": [{"smiles": "CNC(=O)c1ccc(Nc2nc(OC3CCCC3)c3c(-c4cncc(O)c4)c[nH]c3n2)c(OC)c1", "note": "[Example 51, 4-(4-(cyclopentyloxy)-5-(5-hydroxypyridin-3-yl)-7H-pyrrolo [2,3-d]pyrimidin-2-ylamino)-3-methoxy-N-methylbenzamide]", "IC50": "< 100"}, {"smiles": "COc1cc(CN)ccc1Nc1nc(OC2CCCC2)c2c(-c3ccc(O)cc3)c[nH]c2n1", "note": "[Example 52, 4-(2-(4-(aminomethyl)-2-methoxyphenylamino)-4-(cyclopentyloxy)-7H-pyrrolo[2,3-d]pyrimidin-5-yl)phenol]", "IC50": "100 to 400"}, {"smiles": "COc1nc(Nc2ccc(C(=O)N(C)C)cc2Cl)nc2[nH]cc(-c3ccc(-c4nnc[nH]4)cc3)c12", "note": "[Example 53, 4-(5-(4-(4H-1,2,4-triazol-3-yl)phenyl)-4-methoxy-7H-pyrrolo [2,3-d]pyrimidin-2-ylamino)-3-chloro-N,N-dimethylbenzamide]", "IC50": "100 to 400"}, {"smiles": "CNC(=O)c1ccc(Nc2nc(OC3CCCC3)c3c(-c4ccc(OC)c(F)c4)c[nH]c3n2)c(OC)c1", "note": "[Example 54, 4-(4-(cyclopentyloxy)-5-(3-fluoro-4-methoxyphenyl)-7H-pyrrolo[2,3-d]pyrimidin-2-ylamino)-3-methoxy-N-methylbenzamide]", "IC50": "100 to 400"}, {"smiles": "CNC(=O)c1ccc(Nc2nc(OC3CCCC3)c3c(-c4cccc(NC(C)=O)c4)c[nH]c3n2)c(OC)c1", "note": "[Example 56, 4-(5-(3-acetamidophenyl)-4-(cyclopentyloxy)-7H-pyrrolo[2,3-d]pyrimidin-2-ylamino)-3-methoxy-N-methylbenzamide]", "IC50": "< 100"}, {"smiles": "CNC(=O)c1ccc(Nc2nc(OC3CCCC3)c3c(-c4cccc(NS(C)(=O)=O)c4)c[nH]c3n2)c(OC)c1", "note": "[Example 57, 4-(4-(cyclopentyloxy)-5-(3-(methylsulfonamido)phenyl)-7H-pyrrolo[2,3-d]pyrimidin-2-ylamino)-3-methoxy-N-methylbenzamide]", "IC50": "100 to 400"}, {"smiles": "CNC(=O)c1ccc(Nc2nc(OC3CCCC3)c3c(-c4cccnc4)c[nH]c3n2)c(OC)c1", "note": "[Example 58, 4-(4-(cyclopentyloxy)-5-(pyridin-3-yl)-7H-pyrrolo[2,3-d]pyrimidin-2-ylamino)-3-methoxy-N-methylbenzamide]", "IC50": "< 100"}, {"smiles": "CNC(=O)c1cccc(-c2c[nH]c3nc(Nc4ccc(C(=O)NC)cc4OC)nc(OC4CCCC4)c23)c1", "note": "[Example 59, 4-(4-(cyclopentyloxy)-5-(3-(methylcarbamoyl)phenyl)-7H-pyrrolo[2,3-d]pyrimidin-2-ylamino)-3-methoxy-N-methylbenzamide]", "IC50": "100 to 400"}, {"smiles": "CNC(=O)c1ccc(Nc2nc(OC3CCCC3)c3c(-c4cccc(OC)c4)c[nH]c3n2)c(OC)c1", "note": "[Example 60, 4-(4-(cyclopentyloxy)-5-(3-methoxyphenyl)-7H-pyrrolo[2,3-d]pyrimidin-2-ylamino)-3-methoxy-N-methylbenzamide]", "IC50": "100 to 400"}, {"smiles": "CNC(=O)c1ccc(Nc2nc(OC3CCCC3)c3c(-c4ccc(S(C)(=O)=O)cc4)c[nH]c3n2)c(OC)c1", "note": "[Example 61, 4-(4-(cyclopentyloxy)-5-(4-(methyl-sulfonyl)phenyl)-7H-pyrrolo[2,3-d]pyrimidin-2-ylamino)-3-methoxy-N-methylbenzamide]", "IC50": "< 100"}, {"smiles": "CNC(=O)c1ccc(Nc2nc(OC3CCCC3)c3c(-c4ccc(NC(C)=O)cc4)c[nH]c3n2)c(OC)c1", "note": "[Example 62, 4-(5-(4-acetamidophenyl)-4-(cyclopentyloxy)-7H-pyrrolo[2,3-d]pyrimidin-2-ylamino)-3-methoxy-N-methylbenzamide]", "IC50": "< 100"}, {"smiles": "CNC(=O)c1ccc(Nc2nc(OC3CCCC3)c3c(-c4cccc(S(C)(=O)=O)c4)c[nH]c3n2)c(OC)c1", "note": "[Example 63, 4-(4-(cyclopentyloxy)-5-(3-(methyl-sulfonyl)phenyl)-7H-pyrrolo[2,3-d]pyrimidin-2-ylamino)-3-methoxy-N-methylbenzamide]", "IC50": "< 100"}, {"smiles": "CNC(=O)c1ccc(Nc2nc(OC3CCCC3)c3c(-c4ccc(OC)c(OC)c4)c[nH]c3n2)c(OC)c1", "note": "[Example 64, 4-(4-(cyclopentyloxy)-5-(3,4-dimethoxyphenyl)-7H-pyrrolo[2,3-d]pyrimidin-2-ylamino)-3-methoxy-N-methylbenzamide]", "IC50": "100 to 400"}]}]}
